Tests used:
[1] = Solubility of perfluorocarbon contrast agents in oil phase; assay type: physicochemical
From the text: Perfluoroctylbromide (PFOB) is a known contrast agent for the magnetic resonance spectroscopy.

[2] = Density measurement of mixtures of MCT and F6H8; assay type: physicochemical; details: mixture with about 61.5 wt.-% MCT, based on total weight of the oil phase
From the text: By adapting the density of the oil phase to the density of the aqueous phase coalescence phenomena of the droplets as well as sedimentation phenomena, which destabilize the emulsion, can be decreased.

FC(F)(F)C(F)(F)C(F)(F)C(F)(F)C(F)(F)C(F)(F)C(F)(F)C(F)(F)Br [PFOB, Perfluoroctylbromide, reference compound]
Solubility in MCT [1]: cannot be dissolved in MCT

FC(F)(F)C(F)(F)C(F)(F)C(F)(F)C(F)(F)C(F)(F)C(F)(F)C(F)(F)C(F)(F)C(F)(F)Br [PFDB, perfluorodecylbromide]
Solubility in PFOB [1]: can be dissolved in PFOB

CCCCCCCCC(F)(F)C(F)(F)C(F)(F)C(F)(F)C(F)(F)C(F)(F)F [Example F6H8, perfluorohexyloctane]
Content of F6H8 in oil phase at which density of the oil mixture corresponds to the density of the aqueous phase [2]: about 38.5 wt.-%
